How the values were obtained:
[1] = molecular target: T1, Tyrosyl DNA Phosphodiesterase 2 (TDP2) (Homo sapiens, UniProt O95551); assay: High-throughput screening for TDP2 inhibitory activity; type: biochemical
T1 sequence (O95551 1-362): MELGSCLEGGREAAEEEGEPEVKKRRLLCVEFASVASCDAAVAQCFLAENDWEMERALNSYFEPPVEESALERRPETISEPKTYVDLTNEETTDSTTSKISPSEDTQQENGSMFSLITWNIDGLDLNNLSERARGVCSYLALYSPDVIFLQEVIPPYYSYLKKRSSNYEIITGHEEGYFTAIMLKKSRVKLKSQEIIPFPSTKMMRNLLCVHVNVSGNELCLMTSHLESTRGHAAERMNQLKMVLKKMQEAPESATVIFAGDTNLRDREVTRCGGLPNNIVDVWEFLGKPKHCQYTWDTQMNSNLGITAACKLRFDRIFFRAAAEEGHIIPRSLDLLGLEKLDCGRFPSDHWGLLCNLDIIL

human lung cancer cells = assay: Synergy with Etoposide in killing cancer cells in vitro; type: cell-based
[2] = test system: LPS-induced ear inflammation; assay: Anti-inflammatory efficacy in LPS-induced local ear inflammation; type: in vivo, mice; conditions: treatment 30 min after LPS; DXM 5 mg/kg where loaded
Method: Explanted mouse ears were washed twice with PBS and embedded in a cryomold in O.C.T. (Tissue-Tek® O.C.T. Compound, Sakura® Finetek), and instantly frozen at −80° C. Ten μm-thick slides were obtained cutting ears block with a cryostat at −20° C. The slides were stored at −20° C. For hematoxylin and eosin (H/E) staining, slides were thawed, hydrated, washed and stained with hematoxylin and eosin (Sigma-Aldrich).
Once cryo-sections were obtained as described in the previous paragraph, immunofluorescence (IF) staining was performed as previously reported (Gelain et al., 2010). Briefly, slides were thawed and blocked with BSA 5% (Sigma-Aldrich) PBS 1× solution. After washing, they were incubated overnight at 4° C. with anti-neutrophil antibody (Alexa Fluor® 647 anti-mouse Ly-6G/Ly-6C (Gr-1) Biolegend. Excess anti-neutrophil antibody was washed out with PBS 1X. Cells nuclei were stained with DAPI. Slides were sealed with ProLong Gold antifade reagent (Life Technologies™). Images were captured with an Eclipse® Ti Inverted Fluorescent Microscope equipped with Hamamatsu Digital Camera C11440 ORCA-Flash 2.8.
Particles were administrated 30 min after LPS injection.
Explanted Mice ears were washed twice with PBS and embedded in a cryomold in O.C.T. (Tissue-Tek® O.C.T. Compound, Sakura® Finetek), and instantly frozen at −80° C. […]

SMILES | TDP2 inhibitory activity [1] | synergy with Etoposide in cancer cell killing (human lung cancer cells) | tissue architecture (H&E staining) [2]
COc1cc2c(cc1OC)-c1c(OC)c(OC)cc3c1[C@H](C2)N(C)CC3 [Glaucine] | TDP2 inhibitor | able to enhance Etoposide mediated cancer cell killing | –
C[C@@H]1C[C@H]2[C@@H]3CCC4=CC(=O)C=C[C@]4(C)[C@@]3(F)[C@@H](O)C[C@]2(C)[C@@]1(O)C(=O)CO [free DXM, Dexamethasone] | – | – | alteration of tissue architecture

From patent US20190167589A1, “BIOMIMETIC PROTEOLIPID VESICLE COMPOSITIONS AND USES THEREOF” (The Methodist Hospital, priority 2016, published 2019)
